Columns and labels:
[1] = Measurement of two-photon absorption cross-section (z-scan technique, 405 nm); type: physicochemical; conditions: for Two-photon absorption cross-section σ: light of wavelength 405 nm, Ti:sapphire pulsed laser second harmonic, pulse width 80 fs, 1 kHz; for Ratio σ/ε: two-photon absorption cross-section σ (GM) to molar absorption coefficient ε at 405 nm
Excerpt: The two-photon absorption cross-section of the compound A irradiated with light having a wavelength of 405 nm may be greater than or equal to 1 GM, may be greater than or equal to 10 GM, may be greater than or equal to 30 GM, may be greater than or equal to 50 GM, may be greater than or equal to 70 GM, may be greater than or equal to 100 GM, may be greater than or equal to 200 GM, or may be greater than or equal to 300 GM. The upper limit of the two-photon absorption cross-section of the compound A is not particularly limited, and is, for example, 10000 GM. For example, the two-photon absorption cross-section may be measured by the z-scan technique described in J. Opt. Soc. Am. B, 2003, Vol. 20, p. 529. The z-scan technique is widely used as a method for measuring non-linear optical constants. In the z-scan technique, a measurement sample is moved along the beam irradiation direction near the focal point at which the laser beam is focused. During this process, the change in the amount of light transmitted through the measurement sample is recorded. In the z-scan technique, the power density of incident light changes depending on the location of the measurement sample. Thus, when the measurement sample absorbs light non-linearly, the amount of transmitted light is attenuated when the measurement sample is located near the focal point of the laser beam. The two-photon absorption cross-section may be calculated by fitting the changes in the amount of transmitted light based on the theoretical curve predicted from conditions, such as the intensity of the incident light, the thickness of the measurement sample, and the concentration of the compound A in the measurement sample.
The two-photon absorption cross-section of the compounds of Examples and Comparative Examples was measured with respect to light having a wavelength of 405 nm. The measurement of the two-photon absorption cross-section was performed using the z-scan technique described in J. Opt. Soc. Am. B, 2003, Vol. 20, p. 529. The light source used for the measurement of the two-photon absorption cross-section was a Ti:sapphire pulsed laser. Specifically, second harmonic waves from the Ti:sapphire pulsed laser were applied to the sample. The pulse width of the laser was 80 fs. The repetition frequency of the laser was 1 kHz. The average power of the laser was changed in the range of greater than or equal to 0.01 mW and less than or equal to 0.08 mW. […] The full width at half maximum of the light from the laser was 4 nm.

[2] = Measurement of molar absorption coefficient (JIS K0115: 2004, 405 nm); type: physicochemical; conditions: absorbance at 405 nm; compound concentration 500 mmol/L
Excerpt: The molar absorption coefficient of the compound A with respect to light having a wavelength of 405 nm may be less than or equal to 50 mol^−1·L·cm^−1, may be less than or equal to 10 mol^−1·L·cm^−1, may be less than or equal to 5 mol^−1·L·c^−1, may be less than or equal to 2 mol^−1·L·cm^−1, or may be less than or equal to 1 mol^−1·L·cm^−1. The lower limit of the molar absorption coefficient of the compound A is not particularly limited, and is, for example, 0.01 mol^−1·L·cm^−1. The molar absorption coefficient may be measured by, for example, a method in accordance with the manual specified in Japanese Industrial Standards (JIS) K0115: 2004. […] In the measurement of the molar absorption coefficient, furthermore, the concentration of the compound A is adjusted to 500 mmol/L. This concentration is very high compared to the concentration in the measurement test of the molar absorption coefficient of an optical absorption peak. The molar absorption coefficient may be used as an index of one-photon absorption.
The compounds of Examples and Comparative Examples were analyzed by a method in accordance with JIS K0115: 2004 to measure the molar absorption coefficient. Specifically, first, a measurement sample was provided in which the concentration of the compound had been controlled to 500 mmol/L. An absorption spectrum of the measurement sample was measured. From the spectrum obtained, the absorbance at a wavelength of 405 nm was read. The molar absorption coefficient was calculated based on the concentration of the compound in the measurement sample and the optical path length of the cell used for the measurement.

Row | Compound | Two-photon absorption cross-section σ [1] | Ratio σ/ε [1] | Molar absorption coefficient ε [2]
1 | COc1cc(Br)c(-c2cc(OC)c(OC)cc2-c2cc(OC)c(OC)cc2-c2cc(OC)c(OC)cc2Br)cc1OC [Ex. 1] | 51 GM | 38 | 1.34 L/mol/cm
2 | COc1cc(Br)c(-c2cc(OC)c(OC)cc2-c2cc(OC)c(OC)cc2Br)cc1OC [OP3Br] | could not be measured |  | 
3 | C(#Cc1c(C#Cc2ccccc2)c(C#Cc2ccccc2)c(C#Cc2ccccc2)c(C#Cc2ccccc2)c1C#Cc1ccccc1)c1ccccc1 [compound 1, hexakis(phenylethynyl)benzene, reference compound] | 23000 GM | 10 | 2730 L/mol/cm
4 | OC(C#Cc1ccc(N(c2ccc(C#CC(O)(c3ccccc3)c3ccccc3)cc2)c2ccc(C#CC(O)(c3ccccc3)c3ccccc3)cc2)cc1)(c1ccccc1)c1ccccc1 [compound 2, reference compound] | 380 GM | 5 | 70 L/mol/cm

Next, values leading:

Row | Two-photon absorption cross-section σ [1] | Ratio σ/ε [1] | Molar absorption coefficient ε [2] | Compound
5 | 73 GM | 72 | 1.01 L/mol/cm | COc1cc(Br)c(-c2cc(OC)c(OC)cc2-c2cc(OC)c(OC)cc2-c2cc(OC)c(OC)cc2-c2cc(OC)c(OC)cc2-c2cc(OC)c(OC)cc2-c2cc(OC)c(OC)cc2-c2cc(OC)c(OC)cc2Br)cc1OC [Ex. 2]
6 | 71 GM | 142 | 0.50 L/mol/cm | COc1cc(Br)c(-c2cc(OC)c(OC)cc2-c2cc(OC)c(OC)cc2-c2cc(OC)c(OC)cc2-c2cc(OC)c(OC)cc2-c2cc(OC)c(OC)cc2-c2cc(OC)c(OC)cc2-c2cc(OC)c(OC)cc2-c2cc(OC)c(OC)cc2-c2cc(OC)c(OC)cc2-c2cc(OC)c(OC)cc2-c2cc(OC)c(OC)cc2Br)cc1OC [Ex. 3]
7 | 82 GM | 167 | 0.49 L/mol/cm | COc1cc(Br)c(-c2cc(OC)c(OC)cc2-c2cc(OC)c(OC)cc2-c2cc(OC)c(OC)cc2-c2cc(OC)c(OC)cc2-c2cc(OC)c(OC)cc2-c2cc(OC)c(OC)cc2-c2cc(OC)c(OC)cc2-c2cc(OC)c(OC)cc2-c2cc(OC)c(OC)cc2-c2cc(OC)c(OC)cc2-c2cc(OC)c(OC)cc2-c2cc(OC)c(OC)cc2-c2cc(OC)c(OC)cc2Br)cc1OC [Ex. 4]
8 | 336 GM | 223 | 1.51 L/mol/cm | COc1cc(Br)c(-c2cc(OC)c(OC)cc2-c2cc(OC)c(OC)cc2-c2cc(OC)c(OC)cc2-c2cc(OC)c(OC)cc2-c2cc(OC)c(OC)cc2-c2cc(OC)c(OC)cc2-c2cc(OC)c(OC)cc2-c2cc(OC)c(OC)cc2-c2cc(OC)c(OC)cc2-c2cc(OC)c(OC)cc2-c2cc(OC)c(OC)cc2-c2cc(OC)c(OC)cc2-c2cc(OC)c(OC)cc2-c2cc(OC)c(OC)cc2-c2cc(OC)c(OC)cc2Br)cc1OC [Ex. 5]

Reference: patent publication US20240069408A1, “LIGHT ABSORPTION MATERIAL, RECORDING MEDIUM, INFORMATION RECORDING METHOD, AND INFORMATION READING METHOD” (Panasonic Intellectual Property Management Co., Ltd., priority 2021, published 2024)
